Experiments:
Glucocorticoid receptor = biological target: T1, Glucocorticoid receptor (Homo sapiens, UniProt P04150); experiment: Transcriptional activation of Gal4(1-147) tagged glucocorticoid receptor in human HeLa cells by luciferase reporter gene assay relative to OxDex-AEEA; type: cell-based
T1 sequence (P04150 whole entry): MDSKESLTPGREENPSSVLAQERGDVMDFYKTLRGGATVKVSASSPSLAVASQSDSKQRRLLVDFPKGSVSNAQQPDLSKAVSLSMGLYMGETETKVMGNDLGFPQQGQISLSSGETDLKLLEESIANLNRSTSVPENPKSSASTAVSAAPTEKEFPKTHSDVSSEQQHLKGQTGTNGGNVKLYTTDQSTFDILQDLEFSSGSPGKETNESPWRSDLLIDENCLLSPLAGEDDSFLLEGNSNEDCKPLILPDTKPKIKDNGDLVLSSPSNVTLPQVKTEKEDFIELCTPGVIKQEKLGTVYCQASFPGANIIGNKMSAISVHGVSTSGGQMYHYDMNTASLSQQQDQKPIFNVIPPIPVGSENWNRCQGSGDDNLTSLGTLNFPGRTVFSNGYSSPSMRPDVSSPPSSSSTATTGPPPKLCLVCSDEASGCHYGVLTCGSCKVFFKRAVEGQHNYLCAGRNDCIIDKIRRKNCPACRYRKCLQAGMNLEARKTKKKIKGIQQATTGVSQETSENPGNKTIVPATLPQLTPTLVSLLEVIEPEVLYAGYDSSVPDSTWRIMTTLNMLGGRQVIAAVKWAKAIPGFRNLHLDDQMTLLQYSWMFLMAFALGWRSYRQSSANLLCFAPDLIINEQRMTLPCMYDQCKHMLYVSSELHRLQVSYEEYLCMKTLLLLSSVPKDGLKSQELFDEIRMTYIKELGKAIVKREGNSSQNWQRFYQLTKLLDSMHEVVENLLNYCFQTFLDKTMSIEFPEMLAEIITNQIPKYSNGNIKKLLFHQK

[1] = biological target: T2, Glucocorticoid receptor (Homo sapiens) (UniProt P04150); experiment: Transcriptional activation of Gal4(1-147) tagged glucocorticoid receptor in human HeLa cells at 1 uM by luciferase reporter gene assay relative to OxDex-AEEA; type: cell-based
T2 sequence (whole entry): T1 sequence (P04150 whole entry)

| Structure (SMILES) | EC50 (Glucocorticoid receptor) [nM] | fold change (FC) [1] |
| --- | --- | --- |
| CC(C)C[C@@H](NC(=O)COCCOCCNC(=O)[C@@]1(O)[C@H](C)C[C@H]2[C@@H]3CCC4=CC(=O)C=C[C@]4(C)[C@@]3(F)[C@@H](O)C[C@@]21C)C(=O)N[C@H](CO)C(=O)N[C@H](Cc1ccccc1)C(N)=O | 1860 |  |
| CC(C)C[C@]1(CCO)C[C@H](CNC(=O)COCCOCCNC(=O)[C@@]2(O)[C@H](C)C[C@H]3[C@@H]4CCC5=CC(=O)C=C[C@]5(C)[C@@]4(F)[C@@H](O)C[C@@]32C)ON1Cc1ccccc1 | 33 | 80 |
| CC(C)C[C@](CCO)(C[C@H](O)CNC(=O)COCCOCCNC(=O)[C@@]1(O)[C@H](C)C[C@H]2[C@@H]3CCC4=CC(=O)C=C[C@]4(C)[C@@]3(F)[C@@H](O)C[C@@]21C)NCc1ccccc1 | 2500 |  |
